This note sets out measurements from US12139488B2, “Pyrido[3,2-d]pyrimidine compounds uses thereof for treating a proliferative disease” (Universite de Montreal, priority 2021, dated 2024).

Where two headings read alike, the source gives them in different places.

Common to all, as to assay type: cell-based, human
For one assay, the system named is SW480 cells (KRAS G12D). Briefly: Proliferation inhibition (CellTiter-Glo), SW480. The settings on record: SW480, 3 days, read-out: SW480 Prolif. EC50. Here is the method:
(§1) All cancer cell lines (A375, A101D, A2058, RKO, HT29 SK-MEL 30, IPC298, HepG2, HCT-116, Lovo, SWV620, SW480, NCI-H358, NCI-H2122, Calu-6, NCIH2087, NCIH1755, NCIH1666 and Mewo) were obtained from ATCC and cultured in RPMI-1640 medium (Gibco) supplemented with 5% heat inactivated fetal bovine serum (FBS, Wisent) at 37° C. under 5% CO2. Cells were maintained in T175 flasks (Greiner). They were passaged by removing the culture medium, washing once in 10 mL of room temperature Phosphate Buffered Saline (PBS; Wisent) and incubating at 37° C. with 2 mL of 0.05% Trypsin (Thermo-Fisher). Trypsin was then inactivated by adding complete growth medium and the cells were then replated in a T175 culture dish at the appropriate dilution. All cell lines were routinely tested for mycoplasma contamination. Tissue type and mutational status of each cell line can be found in Table B.
(§2) CellTiter-Glo® viability analysis was conducted on cells plated in 100 μL of complete RPMI-1640 growth medium in 96-well flat-bottomed white opaque plates (Greiner or Croning) at a density indicated in Table E (for each CCL, number of cells plated per well of a 96-well plate to perform the CellTiter-Glo® cell viability assay). The cell density in cells/cm^2 would correspond to cell number divided by the area of one well of a 96-well plate (0.32 cm^2). […]
(§3) After 3 days of incubation, the growth media were removed by aspiration and 60 μL of diluted CellTiter-Glo® reagent (10 μL CellTiter-Glo® reagent+50 μL of PBS) was added to each well. […] Luminescence signals were then acquired on a Synergy Neo2 plate reader (Biotek).
(§4) The effect of each compound dilution on the proliferation of cancer cell lines was expressed in % inhibition and calculated as follows. […]
(§5) The ability of each compound to inhibit proliferation was expressed as a EC50 value obtained by plotting the effect values for each data point of a dilution series and fitting the obtained curves using a log(agonist) versus response-variable slope (four parameters) function using GraphPadPrism (V7.0) or Dotmatics Screening Ultra platform.

Assay [1] has as its system pERK in IPC298 cells (NRAS-Q61L). Briefly: Phospho-ERK inhibition (AlphaLISA), IPC298. The settings on record: for IPC298 pERK % Ymin: IPC298, value in parentheses. Here is the method:
as §1
(§6) AlphaLISA® SureFire® Ultra™ p-ERK 1/2 (Thr202/Tyr204) analysis was conducted on cells plated in 100 μL of complete RPMI-1640 growth medium in 96-well flat-bottomed transparent dishes (Costar) at a density indicated in Table C. Cells were maintained overnight at 37° C. under 5% CO2 before treatment with compounds' dilution series for one hour. The cell density in cells/cm^2 corresponds to cell number divided by the area of one well of a 96-well plate ([…]).
(§7) In a dilution series 100 μL/well of test substance dilution prepared in complete RPMI-1640 growth media was added to the cells. The dilution series is selected so that ten concentrations cover a range from 10 μM to 0.33 nM. If necessary the initial concentration of 10 μM is increased to 100 μM or lowered to 1 μM (as in the case of A375 and H1666 cells, which are generally more sensitive to the compounds) and further dilution is carried out accordingly. The final concentration of DMSO in the assay is set at 0.5%.
(§8) After treatment, media was removed and cells were lysed in 50 μL of 1× AlphaScreen Ultra Lysis Buffer (Perkin Elmer). The AlphaLISA® SureFire® Ultra™ p-ERK 1/2 (Thr202/Tyr2O4) (PerkinElmer) reactions were performed with 5 μL of cell lysate according to the manufacturer's specifications in 384-well proxyplates (Perkin Elmer) followed by overnight incubation of the reactions at room temperature in a humidified chamber. After completion of the reactions, the signals were recorded on an EnVision plate reader (Perkin Elmer) using built in AlphaLISA® settings.
(§9) The effect of each compound dilution on the pERK signal was expressed in % inhibition and calculated as follows. An internal 100% inhibition control ([…] trametinib, cat #HY-10999; MedChem Express; CAS #871700-17-3) was included in each plate and used as a measure of pERK background. First, the value obtained for trametinib was subtracted from each data point. The average of DMSO (vehicle) controls (set as 0% inhibition) was established and used to calculate % inhibition: % inhibition=100*(1-((pERK signalcompound)/(pERK signalDMSO)))
(§10) The ability of each compound to inhibit pERK signal was expressed as an IC50 value obtained by plotting the inhibition values for each data point of a dilution series and fitting the obtained curves using a log(agonist) versus response-variable slope (four parameters) function using GraphPadPrism (V7.0) or Dotmatics Screening Ultra platform.
(§11) When present, paradoxical pERK induction is inferred from the negative % inhibition values observed in the pERK IC50 curves of a compound.

The test system of assay [2] is pERK in SK-MEL30 cells (NRAS-Q61K). Briefly: Phospho-ERK inhibition (AlphaLISA), SK-MEL30. The settings on record: for SK-MEL30 pERK % Ymin: SK-MEL30, value in parentheses. Here is the method: as §1, §6, §7, §8, §9, §10, §11
Assay [3] relates to pERK in HepG2 cells (NRAS-Q61L). Briefly: Phospho-ERK inhibition (AlphaLISA), HepG2. As to conditions: for IC50: HepG2; for HepG2 pERK % Ymin: HepG2, value in parentheses. Here is the method: as §1, §6, §7, §8, §9, §10, §11
The subject of another assay is SW620 cells (KRAS-G12V). Briefly: Proliferation inhibition (CellTiter-Glo), SW620. The settings on record: SW620, 3 days, read-out: SW620 Prolif. EC50. Here is the method:
as §1, §2, §3, §4, §5

Assay [4] relates to pERK in NCIH2087 cells (BRAF L597V; KRAS Q61K). The assay can be described thus: Phospho-ERK inhibition (AlphaLISA), NCIH2087. As to conditions: for NCIH2087 pERK % Ymin: NCIH2087, value in parentheses. Here is the method: as §1, §6, §7, §8, §9, §10, §11

For the compound `Nc1cccc2c1ncn2-c1ccc2ncnc(Nc3c(F)ccc(NS(=O)(=O)c4cccc(Cl)c4Cl)c3F)c2n1` [Example 99], the EC50 in the assay with SW480 cells (KRAS G12D) and with SW620 cells (KRAS-G12V) was 0.3 to 3 µM each time. Further, the IC50 in assay [1] (IPC298) was 0.03 to 0.3 µM; in assay [2] (SK-MEL30), under 0.03 µM; in assay [3] it was under 0.03 µM; in assay [4] (NCIH2087) it was under 0.03 µM. Besides, the “IPC298 pERK % Ymin” value in assay [1] is reported as −2%. Further, in assay [2], the “SK-MEL30 pERK % Ymin” value is reported as −1%. Besides, in assay [3], the “HepG2 pERK % Ymin” value amounted to 7%. Also, in assay [4], the “NCIH2087 pERK % Ymin” value stood at 15%.
For the compound `CC1(O)CCN(c2cccc3c2ncn3-c2ccc3ncnc(Nc4c(F)ccc(NS(=O)(=O)c5cccc(Cl)c5Cl)c4F)c3n2)CC1` [Example 524], the EC50 in the assay on SW480 cells (KRAS G12D) and in the assay on SW620 cells (KRAS-G12V) was 0.3 to 3 µM in each case. Further, the IC50 in assay [1] (IPC298) was 0.03 to 0.3 µM; in assay [2] (SK-MEL30) it was under 0.03 µM; in assay [3], 0.03 to 0.3 µM; in assay [4] (NCIH2087), under 0.03 µM. Further, in assay [1], the “IPC298 pERK % Ymin” value was 13%. The “SK-MEL30 pERK % Ymin” value in assay [2] is −13%. For the same compound, the “HepG2 pERK % Ymin” value in assay [3] is listed as 2%. In addition, in assay [4], the “NCIH2087 pERK % Ymin” value was 3%.
Consider `Cc1ccc2c(Nc3cccc(Cl)c3F)nccc2c1NC(=O)c1csc2c(N)ncnc12` [Belvarafenib, reference compound], for which the EC50 with SW480 cells (KRAS G12D) (Homo sapiens, 72 h) lay within 0.3 to 3 µM; in the assay on SW620 cells (KRAS-G12V) (Homo sapiens, SW-620, 72 h), 0.3 to 3 µM. Moreover, the IC50 is 0.03 to 0.3 µM in assay [1] (Homo sapiens, IPC-298); under 0.03 µM in assay [2] (Homo sapiens, SK-MEL-30); 0.03 to 0.3 µM in assay [3] (Homo sapiens); under 0.03 µM in assay [4] (Homo sapiens, NCI-H2087). In addition, the “IPC298 pERK % Ymin” value in assay [1] is −63%. In assay [2], the “SK-MEL30 pERK % Ymin” value is on record as −45%. For the same compound, the “HepG2 pERK % Ymin” value in assay [3] is listed as −36%. The “NCIH2087 pERK % Ymin” value in assay [4] is 6%.
